Measured values published in patent US20130333715A1, “SHAMPOO COMPOSITIONS AND METHODS OF MAKING SAME” (The Procter & Gamble Company, priority 2012, published 2013).

Assays:
[1] = 1:1 complex, fully deprotonated chelant, 25° C., 0.1M ionic strength; cited from earlier work
[2] = 1:1 complex, fully deprotonated chelant, 25° C., 0.1M ionic strength; cited from earlier work; remark: listed apart in the source
[3] = Calculated conditional stability constants for chelants with Ca^+2 at specified pH; format: physicochemical
Description: (§1) However, as the pH range of the present compositions are acidic (i.e., less than 7), the log alpha value (αm) is considered to be constant and approximately negligible.
The calculated stability constants for a range of chelants with Fe^+3, Cu^+2, and Ca^+2 are given below in Table 3: […]

[4] = Calculated conditional stability constants for chelants with Fe^+3 at specified pH
Description: The gradual change in ligand species as pH changes can be represented using alpha (α) coefficients, defined as: [formula] […] By combining stability (K) and alpha (α) constants at a given pH, the formula below provides the effective chelating power of a chelant.

[5] = 1:1 complex, fully deprotonated chelant, 25° C., 0.1M ionic strength; cited from earlier work; remark: listed apart in the source
[6] = Calculated conditional stability constants for chelants with Cu^+2 at specified pH; format: physicochemical
Description: as §1

SMILES | log K Ca [1] | log K Cu [2] | log Conditional Stability Constant (@ pH) Ca^+2 ([3]; pH 2) | log Conditional Stability Constant (@ pH) Ca^+2 ([3]; pH 3) | log Conditional Stability Constant (@ pH) Ca^+2 ([3]; pH 4) | log Conditional Stability Constant (@ pH) Ca^+2 ([3]; pH 5) | log Conditional Stability Constant (@ pH) Ca^+2 ([3]; pH 6) | log Conditional Stability Constant (@ pH) Ca^+2 ([3]; pH 7) | log Conditional Stability Constant (@ pH) Ca^+2 ([3]; pH 8) | log K Fe [5] | log Conditional Stability Constant (@ pH) Cu^+2 ([6]; pH 2) | log Conditional Stability Constant (@ pH) Cu^+2 ([6]; pH 3) | log Conditional Stability Constant (@ pH) Cu^+2 ([6]; pH 4) | log Conditional Stability Constant (@ pH) Cu^+2 ([6]; pH 5) | log Conditional Stability Constant (@ pH) Cu^+2 ([6]; pH 6) | log Conditional Stability Constant (@ pH) Cu^+2 ([6]; pH 8) | log Conditional Stability Constant (@ pH) Cu^+2 ([6]; pH 7) | also measured
O=C(O)CC(NCCNC(CC(=O)O)C(=O)O)C(=O)O (mixture of isomers) [EDDS, ethylene diamine disuccinic acid] | 4.58 | 18.35 | −11.11 | −7.42 | −4.50 | −2.29 | −0.13 | 1.36 | 2.56 | 22.0 | 2.59 | 6.28 | 9.20 | 11.41 | 13.39 | 16.26 | – | log Conditional Stability Constant (@ pH) Fe^+3 ([4]; pH 2): 6.29; log Conditional Stability Constant (@ pH) Fe^+3 ([4]; pH 3): 9.98; log Conditional Stability Constant (@ pH) Fe^+3 ([4]; pH 4): 12.90; log Conditional Stability Constant (@ pH) Fe^+3 ([4]; pH 6): 17.09; log Conditional Stability Constant (@ pH) Fe^+3 ([4]; pH 7): 18.76; log Conditional Stability Constant (@ pH) Fe^+3 ([4]; pH 8): 19.96
O=C(O)CN(CCN(CC(=O)O)CC(=O)O)CCN(CC(=O)O)CC(=O)O [DTPA] | 10.75 | 21.4 | −7.26 | −3.72 | −0.75 | 1.64 | 3.71 | 5.71 | 7.62 | 16.4 | 3.34 | 6.88 | 9.85 | 12.24 | 14.31 | 18.22 | 16.31 | –
O=P(O)(O)CN(CCN(CP(=O)(O)O)CP(=O)(O)O)CCN(CP(=O)(O)O)CP(=O)(O)O [DTPMP, diethylenetriamine penta(methylene phosphonic acid)] | 7.1 | 19.5 | −21.50 | −17.50 | −13.50 | −9.50 | −5.53 | −1.72 | 1.45 | 26.5 | −9.10 | −5.10 | −1.10 | 2.90 | 6.87 | 13.85 | 10.68 | log Conditional Stability Constant (@ pH) Fe^+3 ([4]; pH 2): −2.10; log Conditional Stability Constant (@ pH) Fe^+3 ([4]; pH 3): 1.90; log Conditional Stability Constant (@ pH) Fe^+3 ([4]; pH 4): 5.90; log Conditional Stability Constant (@ pH) Fe^+3 ([4]; pH 5): 9.90; log Conditional Stability Constant (@ pH) Fe^+3 ([4]; pH 6): 13.87; log Conditional Stability Constant (@ pH) Fe^+3 ([4]; pH 7): 17.68; log Conditional Stability Constant (@ pH) Fe^+3 ([4]; pH 8): 20.85
O=C(O)CC[C@H](NCCN[C@H](CCC(=O)O)C(=O)O)C(=O)O [EDDG, ethylenediamine-N,N′-diglutaric acid] | 2.70 | 15.15 | – | – | – | – | – | – | – | – | – | – | – | – | – | – | – | –
O=C(O)CN(CCN(CC(=O)O)CC(=O)O)CC(=O)O [EDTA] | 10.65 | 18.78 | −2.65 | 0.19 | 2.36 | 4.35 | 6.14 | 7.45 | 8.50 | 14.3 | 5.45 | 8.29 | 10.46 | 12.45 | 14.24 | 16.60 | 15.55 | –
O=C(O)CC[C@@H](C(=O)O)N(CC(=O)O)CC(=O)O [GLD, glutamic acid diacetic acid] | – | – | −7.62 | −3.88 | −1.45 | 0.13 | 1.25 | 2.27 | 3.27 | – | −0.42 | 3.32 | 5.75 | 7.33 | 8.45 | 10.47 | 9.47 | –
O=C(O)CN(CCN(CC(=O)O)Cc1ccccc1O)Cc1ccccc1O [HBED] | 9.3 | 9.29 | – | – | – | – | – | – | – | 39.7 | – | – | – | – | – | – | – | log Conditional Stability Constant (@ pH) Fe^+3 ([4]; pH 2): 13.54; log Conditional Stability Constant (@ pH) Fe^+3 ([4]; pH 3): 17.54; log Conditional Stability Constant (@ pH) Fe^+3 ([4]; pH 4): 21.52; log Conditional Stability Constant (@ pH) Fe^+3 ([4]; pH 5): 25.39; log Conditional Stability Constant (@ pH) Fe^+3 ([4]; pH 6): 28.82; log Conditional Stability Constant (@ pH) Fe^+3 ([4]; pH 7): 31.89; log Conditional Stability Constant (@ pH) Fe^+3 ([4]; pH 8): 34.85
CC(O)(P(=O)(O)O)P(=O)(O)O [HEDP] | 6.0 | 11.84 | – | – | – | – | – | – | – | 14.1 | – | – | – | – | – | – | – | –
O=C(O)CN(CCO)CCN(CC(=O)O)CC(=O)O [HEDTA] | – | – | −5.81 | −2.90 | −0.35 | 1.68 | 3.21 | 4.33 | 5.34 | – | 3.39 | 6.30 | 8.85 | 10.88 | 12.41 | 14.54 | 13.53 | –
O=C(O)CC(NCC(O)CNC(CC(=O)O)C(=O)O)C(=O)O (centres unmarked) [HPDDS, 2-hydroxypropylendiamin-N—N′-disucinnic acid] | 2.94 | 12.84 | −14.17 | −10.27 | −6.91 | −4.50 | −2.45 | 0.47 | 1.31 | – | −4.27 | −0.37 | 2.99 | 5.40 | 7.45 | 11.21 | 9.43 | –
CC(C(=O)O)N(CC(=O)O)CC(=O)O (centres unmarked) [MGDA, methylglycinediacetic acid] | – | – | −3.10 | −1.06 | 0.18 | 1.21 | 2.21 | 3.21 | 4.21 | – | 3.80 | 5.84 | 7.08 | 8.11 | 9.11 | – | 10.11 | –
